Experimental data published in ChEMBL document CHEMBL1201861, “Genomics of Drug Sensitity in Cancer screening data, Wellcome Trust Sanger Institute”.

tested on: EM-2; assay: cells; type: functional, cell-based, Homo sapiens; conditions: Homo sapiens, EM-2;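 also: growth inhibition of EM-2 cells, read out with a cell viability assay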
Description: SANGER: Inhibition of human EM-2 cell growth in a cell viability assay.

Row | SMILES | IC50
1 | CS(=O)(=O)c1ccc(C(=O)Nc2ccc(Cl)c(-c3ccccn3)c2)c(Cl)c1 [VISMODEGIB] | > 10 µM

tested on: ES3; assay: cells; type: functional, cell-based, Homo sapiens; conditions: Homo sapiens, ES3;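 also: growth inhibition of ES3 cells, read out with a cell viability assay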
Description: SANGER: Inhibition of human ES3 cell growth in a cell viability assay.

Row | SMILES | IC50
2 | CS(=O)(=O)c1ccc(C(=O)Nc2ccc(Cl)c(-c3ccccn3)c2)c(Cl)c1 [VISMODEGIB] | > 10 µM

tested on: JVM-2; assay: cells; type: functional, cell-based, Homo sapiens; conditions: Homo sapiens, JVM-2;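 also: growth inhibition of JVM-2 cells determined by a cell viability assay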
Description: SANGER: Inhibition of human JVM-2 cell growth in a cell viability assay.

Row | SMILES | IC50
3 | CS(=O)(=O)c1ccc(C(=O)Nc2ccc(Cl)c(-c3ccccn3)c2)c(Cl)c1 [VISMODEGIB] | > 10 µM

tested on: MV4-11; assay: cells; type: functional, cell-based, Homo sapiens, MV-4-11; conditions: Homo sapiens, MV4-11;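 also: cell viability readout measuring growth inhibition of human MV-4-11 cells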
Description: SANGER: Inhibition of human MV-4-11 cell growth in a cell viability assay.

Row | SMILES | IC50
4 | CS(=O)(=O)c1ccc(C(=O)Nc2ccc(Cl)c(-c3ccccn3)c2)c(Cl)c1 [VISMODEGIB] | > 10 µM

tested on: BV-173; assay: cells; type: functional, cell-based, Homo sapiens; conditions: Homo sapiens, BV-173
Description: SANGER: Inhibition of human BV-173 cell growth in a cell viability assay.

Row | SMILES | IC50
5 | CS(=O)(=O)c1ccc(C(=O)Nc2ccc(Cl)c(-c3ccccn3)c2)c(Cl)c1 [VISMODEGIB] | > 10 µM

tested on: SH-4; assay: cells; type: functional, cell-based, Homo sapiens; conditions: Homo sapiens, SH-4;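 also: growth inhibition of SH-4 cells, read out with a cell viability assay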
Description: SANGER: Inhibition of human SH-4 cell growth in a cell viability assay.

Row | SMILES | IC50
6 | CS(=O)(=O)c1ccc(C(=O)Nc2ccc(Cl)c(-c3ccccn3)c2)c(Cl)c1 [VISMODEGIB] | > 10 µM

tested on: MS-1; assay: cells; type: functional, cell-based, Homo sapiens; conditions: Homo sapiens, MS-1
Description: SANGER: Inhibition of human MS-1 cell growth in a cell viability assay.

Row | SMILES | IC50
7 | CS(=O)(=O)c1ccc(C(=O)Nc2ccc(Cl)c(-c3ccccn3)c2)c(Cl)c1 [VISMODEGIB] | > 10 µM

tested on: MFM-223; assay: cells; type: functional, cell-based, Homo sapiens; conditions: Homo sapiens, MFM-223
Description: SANGER: Inhibition of human MFM-223 cell growth in a cell viability assay.

Row | SMILES | IC50
8 | CS(=O)(=O)c1ccc(C(=O)Nc2ccc(Cl)c(-c3ccccn3)c2)c(Cl)c1 [VISMODEGIB] | > 10 µM

tested on: HCC 2998; assay: cells; type: functional, cell-based, Homo sapiens; conditions: Homo sapiens, HCC 2998;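 also: growth inhibition of human HCC2998 cells, measured with a cell viability read-out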
Description: SANGER: Inhibition of human HCC2998 cell growth in a cell viability assay.

Row | SMILES | IC50
9 | CS(=O)(=O)c1ccc(C(=O)Nc2ccc(Cl)c(-c3ccccn3)c2)c(Cl)c1 [VISMODEGIB] | > 10 µM

tested on: OMC-1; assay: cells; type: functional, cell-based, Homo sapiens; conditions: Homo sapiens, OMC-1;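 also: growth inhibition of the OMC-1 cell line, measured by a cell viability assay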
Description: SANGER: Inhibition of human OMC-1 cell growth in a cell viability assay.

Row | SMILES | IC50
10 | CS(=O)(=O)c1ccc(C(=O)Nc2ccc(Cl)c(-c3ccccn3)c2)c(Cl)c1 [VISMODEGIB] | > 10 µM

tested on: LS-513; assay: cells; type: functional, cell-based, Homo sapiens; conditions: Homo sapiens, LS-513
Description: SANGER: Inhibition of human LS-513 cell growth in a cell viability assay.

Row | SMILES | IC50
11 | CS(=O)(=O)c1ccc(C(=O)Nc2ccc(Cl)c(-c3ccccn3)c2)c(Cl)c1 [VISMODEGIB] | > 10 µM

tested on: ETK-1; assay: cells; type: functional, cell-based, Homo sapiens; conditions: Homo sapiens, ETK-1;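 also: growth inhibition of human ETK-1 cells, read out with a cell viability assay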
Description: SANGER: Inhibition of human ETK-1 cell growth in a cell viability assay.

Row | SMILES | IC50
12 | CS(=O)(=O)c1ccc(C(=O)Nc2ccc(Cl)c(-c3ccccn3)c2)c(Cl)c1 [VISMODEGIB] | > 10 µM

tested on: NCI-H1355; assay: cells; type: functional, cell-based, Homo sapiens; conditions: Homo sapiens, NCI-H1355;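 also: growth inhibition of human NCI-H1355 cells, read out by a cell viability assay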
Description: SANGER: Inhibition of human NCI-H1355 cell growth in a cell viability assay.

Row | SMILES | IC50
13 | CS(=O)(=O)c1ccc(C(=O)Nc2ccc(Cl)c(-c3ccccn3)c2)c(Cl)c1 [VISMODEGIB] | > 10 µM

tested on: IST-SL1; assay: cells; type: functional, cell-based, Homo sapiens; conditions: Homo sapiens, IST-SL1;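 also: growth inhibition of human IST-SL1 cells, read out with a cell viability assay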
Description: SANGER: Inhibition of human IST-SL1 cell growth in a cell viability assay.

Row | SMILES | IC50
14 | CS(=O)(=O)c1ccc(C(=O)Nc2ccc(Cl)c(-c3ccccn3)c2)c(Cl)c1 [VISMODEGIB] | > 10 µM

tested on: RH-1; assay: cells; type: functional, cell-based, Homo sapiens; conditions: Homo sapiens, RH-1;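 also: growth inhibition of human RH-1 cells, read out with a cell viability assay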
Description: SANGER: Inhibition of human RH-1 cell growth in a cell viability assay.

Row | SMILES | IC50
15 | CS(=O)(=O)c1ccc(C(=O)Nc2ccc(Cl)c(-c3ccccn3)c2)c(Cl)c1 [VISMODEGIB] | > 10 µM

tested on: LB2518-MEL; assay: cells; type: functional, cell-based, Homo sapiens; conditions: Homo sapiens, LB2518-MEL;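 also: growth inhibition of human LB2518-MEL cells, measured with a cell viability assay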
Description: SANGER: Inhibition of human LB2518-MEL cell growth in a cell viability assay.

Row | SMILES | IC50
16 | CS(=O)(=O)c1ccc(C(=O)Nc2ccc(Cl)c(-c3ccccn3)c2)c(Cl)c1 [VISMODEGIB] | > 10 µM

tested on: KGN; assay: cells; type: functional, cell-based, Homo sapiens; conditions: Homo sapiens, KGN;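 also: growth inhibition of KGN cells, read out with a cell viability assay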
Description: SANGER: Inhibition of human KGN cell growth in a cell viability assay.

Row | SMILES | IC50
17 | CS(=O)(=O)c1ccc(C(=O)Nc2ccc(Cl)c(-c3ccccn3)c2)c(Cl)c1 [VISMODEGIB] | > 10 µM

tested on: KALS-1; assay: cells; type: functional, cell-based, Homo sapiens; conditions: Homo sapiens, KALS-1;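 also: growth inhibition of KALS-1 cells, determined with a cell viability assay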
Description: SANGER: Inhibition of human KALS-1 cell growth in a cell viability assay.

Row | SMILES | IC50
18 | CS(=O)(=O)c1ccc(C(=O)Nc2ccc(Cl)c(-c3ccccn3)c2)c(Cl)c1 [VISMODEGIB] | > 10 µM

tested on: NMC-G1; assay: cells; type: functional, cell-based, Homo sapiens; conditions: Homo sapiens, NMC-G1;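 also: growth inhibition of the NMC-G1 cell line, measured with a cell viability read-out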
Description: SANGER: Inhibition of human NMC-G1 cell growth in a cell viability assay.

Row | SMILES | IC50
19 | CS(=O)(=O)c1ccc(C(=O)Nc2ccc(Cl)c(-c3ccccn3)c2)c(Cl)c1 [VISMODEGIB] | > 10 µM

tested on: SNU-C2B; assay: cells; type: functional, cell-based, Homo sapiens; conditions: Homo sapiens, SNU-C2B;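 also: cell viability readout used to measure compound-driven suppression of SNU-C2B cell proliferation, IC50 marking half-maximal growth inhibition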
Description: SANGER: Inhibition of human SNU-C2B cell growth in a cell viability assay.

Row | SMILES | IC50
20 | CS(=O)(=O)c1ccc(C(=O)Nc2ccc(Cl)c(-c3ccccn3)c2)c(Cl)c1 [VISMODEGIB] | > 10 µM

tested on: EW-11; assay: cells; type: functional, cell-based, Homo sapiens; conditions: Homo sapiens, EW-11;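 also: growth inhibition of human EW-11 cells, measured with a cell viability assay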
Description: SANGER: Inhibition of human EW-11 cell growth in a cell viability assay.

Row | SMILES | IC50
21 | CS(=O)(=O)c1ccc(C(=O)Nc2ccc(Cl)c(-c3ccccn3)c2)c(Cl)c1 [VISMODEGIB] | > 10 µM

tested on: NCI-N87; assay: cells; type: functional, cell-based, Homo sapiens; conditions: Homo sapiens, NCI-N87;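 also: growth inhibition of human NCI-N87 cells, read out with a cell viability assay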
Description: SANGER: Inhibition of human NCI-N87 cell growth in a cell viability assay.

Row | SMILES | IC50
22 | CS(=O)(=O)c1ccc(C(=O)Nc2ccc(Cl)c(-c3ccccn3)c2)c(Cl)c1 [VISMODEGIB] | > 10 µM

tested on: DMS-114; assay: cells; type: functional, cell-based, Homo sapiens; conditions: Homo sapiens, DMS-114

Row | SMILES | IC50
23 | CS(=O)(=O)c1ccc(C(=O)Nc2ccc(Cl)c(-c3ccccn3)c2)c(Cl)c1 [VISMODEGIB] | > 10 µM

tested on: SK-NEP-1; assay: cells; type: functional, cell-based, Homo sapiens; conditions: Homo sapiens, SK-NEP-1;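 also: growth inhibition of human SK-NEP-1 cells, read out by a cell viability assay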
Description: SANGER: Inhibition of human SK-NEP-1 cell growth in a cell viability assay.

Row | SMILES | IC50
24 | CS(=O)(=O)c1ccc(C(=O)Nc2ccc(Cl)c(-c3ccccn3)c2)c(Cl)c1 [VISMODEGIB] | > 10 µM

tested on: C2BBe1; assay: cells; type: functional, cell-based, Homo sapiens; conditions: Homo sapiens, C2BBe1;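 also: growth inhibition of C2BBe1 cells, read out through a viability assay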
Description: SANGER: Inhibition of human C2BBe1 cell growth in a cell viability assay.

Row | SMILES | IC50
25 | CS(=O)(=O)c1ccc(C(=O)Nc2ccc(Cl)c(-c3ccccn3)c2)c(Cl)c1 [VISMODEGIB] | > 10 µM

tested on: DEL; assay: cells; type: functional, cell-based, Homo sapiens; conditions: Homo sapiens, DEL;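 also: growth inhibition of the human DEL cell line, read out with a cell viability assay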
Description: SANGER: Inhibition of human DEL cell growth in a cell viability assay.

Row | SMILES | IC50
26 | CS(=O)(=O)c1ccc(C(=O)Nc2ccc(Cl)c(-c3ccccn3)c2)c(Cl)c1 [VISMODEGIB] | > 10 µM

tested on: MN-60; assay: cells; type: functional, cell-based, Homo sapiens; conditions: Homo sapiens, MN-60;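 also: growth inhibition of the MN-60 cell line, determined with a cell viability assay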
Description: SANGER: Inhibition of human MN-60 cell growth in a cell viability assay.

Row | SMILES | IC50
27 | CS(=O)(=O)c1ccc(C(=O)Nc2ccc(Cl)c(-c3ccccn3)c2)c(Cl)c1 [VISMODEGIB] | > 10 µM

tested on: KARPAS-45; assay: cells; type: functional, cell-based, Homo sapiens; conditions: Homo sapiens, KARPAS-45;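 also: inhibition of cell line growth, read out through a viability assay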
Description: SANGER: Inhibition of human KARPAS-45 cell growth in a cell viability assay.

Row | SMILES | IC50
28 | CS(=O)(=O)c1ccc(C(=O)Nc2ccc(Cl)c(-c3ccccn3)c2)c(Cl)c1 [VISMODEGIB] | > 10 µM

tested on: SK-N-DZ; assay: cells; type: functional, cell-based, Homo sapiens; conditions: Homo sapiens, SK-N-DZ;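 also: growth inhibition of the cancer cell line, read out through a viability assay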
Description: SANGER: Inhibition of human SK-N-DZ cell growth in a cell viability assay.

Row | SMILES | IC50
29 | CS(=O)(=O)c1ccc(C(=O)Nc2ccc(Cl)c(-c3ccccn3)c2)c(Cl)c1 [VISMODEGIB] | > 10 µM

tested on: LB831-BLC; assay: cells; type: functional, cell-based, Homo sapiens; conditions: Homo sapiens, LB831-BLC;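 also: growth inhibition of LB831-BLC cells, read out with a cell viability assay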
Description: SANGER: Inhibition of human LB831-BLC cell growth in a cell viability assay.

Row | SMILES | IC50
30 | CS(=O)(=O)c1ccc(C(=O)Nc2ccc(Cl)c(-c3ccccn3)c2)c(Cl)c1 [VISMODEGIB] | > 10 µM

tested on: KNS-42; assay: cells; type: functional, cell-based, Homo sapiens; conditions: Homo sapiens, KNS-42;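 also: growth inhibition of KNS-42 cells, read out with a cell viability assay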
Description: SANGER: Inhibition of human KNS-42 cell growth in a cell viability assay.

Row | SMILES | IC50
31 | CS(=O)(=O)c1ccc(C(=O)Nc2ccc(Cl)c(-c3ccccn3)c2)c(Cl)c1 [VISMODEGIB] | > 10 µM

tested on: EW-13; assay: cells; type: functional, cell-based, Homo sapiens; conditions: Homo sapiens, EW-13;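 also: growth inhibition of EW-13 cells, read out with a cell viability assay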
Description: SANGER: Inhibition of human EW-13 cell growth in a cell viability assay.

Row | SMILES | IC50
32 | CS(=O)(=O)c1ccc(C(=O)Nc2ccc(Cl)c(-c3ccccn3)c2)c(Cl)c1 [VISMODEGIB] | > 10 µM

tested on: NCI-H526; assay: cells; type: functional, cell-based, Homo sapiens; conditions: Homo sapiens, NCI-H526;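 also: growth inhibition of the human NCI-H526 cell line, measured by a cell viability assay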
Description: SANGER: Inhibition of human NCI-H526 cell growth in a cell viability assay.

Row | SMILES | IC50
33 | CS(=O)(=O)c1ccc(C(=O)Nc2ccc(Cl)c(-c3ccccn3)c2)c(Cl)c1 [VISMODEGIB] | > 10 µM

tested on: HCE-T; assay: cells; type: functional, cell-based, Homo sapiens; conditions: Homo sapiens, HCE-T;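 also: cell viability assay read-out, reporting inhibition of HCE-T cell growth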
Description: SANGER: Inhibition of human HCE-T cell growth in a cell viability assay.

Row | SMILES | IC50
34 | CS(=O)(=O)c1ccc(C(=O)Nc2ccc(Cl)c(-c3ccccn3)c2)c(Cl)c1 [VISMODEGIB] | 1.32 µM

tested on: D-502MG; assay: cells; type: functional, cell-based, Homo sapiens; conditions: Homo sapiens, D-502MG
Description: SANGER: Inhibition of human D-502MG cell growth in a cell viability assay.

Row | SMILES | IC50
35 | CS(=O)(=O)c1ccc(C(=O)Nc2ccc(Cl)c(-c3ccccn3)c2)c(Cl)c1 [VISMODEGIB] | > 10 µM

tested on: RPMI-8226; assay: cells; type: functional, cell-based, Homo sapiens; conditions: Homo sapiens, RPMI-8226
Description: SANGER: Inhibition of human RPMI-8226 cell growth in a cell viability assay.

Row | SMILES | IC50
36 | CS(=O)(=O)c1ccc(C(=O)Nc2ccc(Cl)c(-c3ccccn3)c2)c(Cl)c1 [VISMODEGIB] | > 10 µM

tested on: DOHH-2; assay: cells; type: functional, cell-based, Homo sapiens; conditions: Homo sapiens, DOHH-2;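 also: growth inhibition of human DOHH-2 cells, read out with a cell viability assay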
Description: SANGER: Inhibition of human DOHH-2 cell growth in a cell viability assay.

Row | SMILES | IC50
37 | CS(=O)(=O)c1ccc(C(=O)Nc2ccc(Cl)c(-c3ccccn3)c2)c(Cl)c1 [VISMODEGIB] | > 10 µM

tested on: LAMA-84; assay: cells; type: functional, cell-based, Homo sapiens; conditions: Homo sapiens, LAMA-84;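 also: growth inhibition of LAMA-84 cells, read out with a cell viability assay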
Description: SANGER: Inhibition of human LAMA-84 cell growth in a cell viability assay.

Row | SMILES | IC50
38 | CS(=O)(=O)c1ccc(C(=O)Nc2ccc(Cl)c(-c3ccccn3)c2)c(Cl)c1 [VISMODEGIB] | > 10 µM

tested on: LB771-HNC; assay: cells; type: functional, cell-based, Homo sapiens; conditions: Homo sapiens, LB771-HNC;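 also: growth inhibition of LB771-HNC human cells, read out with a cell viability assay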
Description: SANGER: Inhibition of human LB771-HNC cell growth in a cell viability assay.

Row | SMILES | IC50
39 | CS(=O)(=O)c1ccc(C(=O)Nc2ccc(Cl)c(-c3ccccn3)c2)c(Cl)c1 [VISMODEGIB] | > 10 µM

tested on: CAS-1; assay: cells; type: functional, cell-based, Homo sapiens; conditions: Homo sapiens, CAS-1;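 also: growth inhibition of CAS-1 cells, measured with a cell viability assay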
Description: SANGER: Inhibition of human CAS-1 cell growth in a cell viability assay.

Row | SMILES | IC50
40 | CS(=O)(=O)c1ccc(C(=O)Nc2ccc(Cl)c(-c3ccccn3)c2)c(Cl)c1 [VISMODEGIB] | > 10 µM

tested on: P30-OHK; assay: cells; type: functional, cell-based, Homo sapiens; conditions: Homo sapiens, P30-OHK;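 also: growth inhibition of the P30-OHK cell line, read out with a cell viability assay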
Description: SANGER: Inhibition of human P30-OHK cell growth in a cell viability assay.

Row | SMILES | IC50
41 | CS(=O)(=O)c1ccc(C(=O)Nc2ccc(Cl)c(-c3ccccn3)c2)c(Cl)c1 [VISMODEGIB] | > 10 µM

tested on: HH; assay: cells; type: functional, cell-based, Homo sapiens; conditions: Homo sapiens, HH
Description: SANGER: Inhibition of human HH cell growth in a cell viability assay.

Row | SMILES | IC50
42 | CS(=O)(=O)c1ccc(C(=O)Nc2ccc(Cl)c(-c3ccccn3)c2)c(Cl)c1 [VISMODEGIB] | > 10 µM

tested on: K5; assay: cells; type: functional, cell-based, Homo sapiens; conditions: Homo sapiens, K5
Description: SANGER: Inhibition of human K5 cell growth in a cell viability assay.

Row | SMILES | IC50
43 | CS(=O)(=O)c1ccc(C(=O)Nc2ccc(Cl)c(-c3ccccn3)c2)c(Cl)c1 [VISMODEGIB] | > 10 µM

tested on: JVM-3; assay: cells; type: functional, cell-based, Homo sapiens; conditions: Homo sapiens, JVM-3;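 also: growth inhibition of human JVM-3 cells, read out with a cell viability assay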
Description: SANGER: Inhibition of human JVM-3 cell growth in a cell viability assay.

Row | SMILES | IC50
44 | CS(=O)(=O)c1ccc(C(=O)Nc2ccc(Cl)c(-c3ccccn3)c2)c(Cl)c1 [VISMODEGIB] | > 10 µM

tested on: ALL-PO; assay: cells; type: functional, cell-based, Homo sapiens; conditions: Homo sapiens, ALL-PO;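 also: growth inhibition of ALL-PO cells, read out by a cell viability assay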
Description: SANGER: Inhibition of human ALL-PO cell growth in a cell viability assay.

Row | SMILES | IC50
45 | CS(=O)(=O)c1ccc(C(=O)Nc2ccc(Cl)c(-c3ccccn3)c2)c(Cl)c1 [VISMODEGIB] | > 10 µM

tested on: LS-411N; assay: cells; type: functional, cell-based, Homo sapiens; conditions: Homo sapiens, LS-411N

Row | SMILES | IC50
46 | CS(=O)(=O)c1ccc(C(=O)Nc2ccc(Cl)c(-c3ccccn3)c2)c(Cl)c1 [VISMODEGIB] | > 10 µM

tested on: ATN-1; assay: cells; type: functional, cell-based, Homo sapiens; conditions: Homo sapiens, ATN-1;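 also: growth inhibition of human ATN-1 cells, read out with a cell viability assay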
Description: SANGER: Inhibition of human ATN-1 cell growth in a cell viability assay.

Row | SMILES | IC50
47 | CS(=O)(=O)c1ccc(C(=O)Nc2ccc(Cl)c(-c3ccccn3)c2)c(Cl)c1 [VISMODEGIB] | > 10 µM

tested on: NB17; assay: cells; type: functional, cell-based, Homo sapiens; conditions: Homo sapiens, NB17;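 also: growth inhibition of NB17 cells, read out with a cell viability assay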
Description: SANGER: Inhibition of human NB17 cell growth in a cell viability assay.

Row | SMILES | IC50
48 | CS(=O)(=O)c1ccc(C(=O)Nc2ccc(Cl)c(-c3ccccn3)c2)c(Cl)c1 [VISMODEGIB] | > 10 µM
